Data reported in patent US12138256B2, “Treatment of cardiopulmonary disorders” (Bayer Aktiengesellschaft, priority 2021, dated 2024).
Values joined by “and” are separate entries in the source; they are usually repeats but may differ in a detail not shown here. Equal entries are not always repeated.

Legend:
[1] = system: hypoxia induced PAP increase in conscious dogs; assay: Haemodynamics in conscious hypoxia challenged dogs (C-2.2); type: in vivo, dog; set-up: PAP, absolute values for each animal: unit: mmHg; conditions: for mPAP decrease during Hypoxia, each animal / mPAP decrease during Hypoxia, mean +/− SEM: n = 3
Protocol: Experiments were carried out in anesthetized Göttingen minipigs, anesthetized rats and conscious, telemetrically instrumented dogs. Acute pulmonary hypertension was induced for example by infusion of a thromboxane A2 analogon, by acute hypoxia treatment or hypoxia treatment over a number of weeks and/or by administration of monocrotaline. Test substances were applied via nebulization using the Nebutec® or Aeroneb® Pro nebulizer system, and/or by means of powder and/or solution applicators for experimental intratracheal administration (Liquid MicroSprayer®, Dry Powder Insufflator™, MicroSprayer®, Penn-Century Inc., Wyndmoor, PA, USA) or after solid nebulization inserted into the inspiration arm of the ventilation. Compounds were employed as solids or solutions depending on the molecular structure and the technical possibility depending on the experiment. The haemodynamic signals were recorded and evaluated by means of pressure transducers/amplifiers (Combitransducer B. Braun, Melsungen, Germany or CardioMEMS Inc., Atlanta, GA, USA) and Ponemah® or CardioMems® as data aquisition software. After long-term experiments (for example monocrotaline rat), it is also possible to carry out a histological evaluation.
We evaluated the lung-selectivity and duration of effects of comparative example 11 under conscious conditions, in another species, and under a more physiological stimulus for PAP increase. Dogs were exposed to hypoxia for 30 minutes to induce a hypoxia-mediated PAP increase and comparative example 11 (100 μg/kg nominal dose) was applied by inhalation 1, 5, 12, 16 and 24 hours before hypoxia.
The hypoxic dog model was also used to compare different drug candidates wrt duration of action under conscious conditions.

[2] = Protein binding via Transil assay, monkey plasma; type: in vitro ADME; conditions: Monkey Cynomolgus plasma
Excerpt: (§1) The distribution of a test substance between Transil® (phosphatidylcholine lipid bilayers immobilized on silica beads) and plasma is a characteristic feature of any pharmaceutical compound and is dependent on its extent of binding to plasma proteins. By comparing the distribution between Transil® and buffer with the distribution between Transil® and plasma of any species of interest, the unbound fraction in the plasma of the respective animal species can be calculated in vitro. The respective plasma and buffer concentrations were determined via a radioactivity analysis. A detailed description of the method and its validation was published by Schuhmacher et al. (2).

[3] = Protein binding via Transil assay, plasma of all species investigated (C-5.2); type: in vitro ADME; conditions: Wistar (rat), Beagle (dog), plasma (Transil beads), read-out: free fractions
Excerpt: as §1

[4] = Protein binding via Transil assay, rat plasma; type: in vitro ADME; conditions: Rat Wistar plasma, Transil assay
Excerpt: as §1

[5] = Protein binding via Transil assay, dog plasma; type: in vitro ADME; conditions: Dog Beagle plasma, Transil assay
Excerpt: as §1

[6] = system: anesthetized PAH minipigs; assay: PAH minipig model: intratracheal application of dry powder formulations and different hydrates (PennCentury insufflator); type: in vivo, Göttingen minipig; conditions: intratracheal lactose formulation; lower doses not applicable
Excerpt: After characterization of the effects of comparative example 11 after nebulization of compound solutions, in a further step the effects of crystalline forms of comparative example 11, e.g. sesquihydrate, e.g. example 6e on PAP and BP after inhaled application of different dry powder lactose formulations (table C2.1.8) were studied in anesthetized PAH minipigs.
As reference pure Lactose vehicle was applied in the beginning of each experiment.

[7] = 100 μg/kg nominal dose inhaled, 1-2 h post inhalation
[8] = 100 μg/kg nominal dose inhaled, 5-6 h post inhalation
[9] = 100 μg/kg nominal dose inhaled, 12-13 h post inhalation
[10] = 100 μg/kg nominal dose inhaled, 16-17 h post inhalation
[11] = 100 μg/kg nominal dose inhaled, 24-25 h post inhalation

O=C(O)c1ccc(CCN(CCc2ccccc2OCc2ccc(-c3ccc(C(F)(F)F)cc3)cc2Cl)[C@H]2CCCc3nc(C(=O)O)ccc32)cc1 [comparative example 11, (5S)-5-{[2-(4-carboxyphenyl)ethyl][2-(2-{[3-chloro-4′-(trifluoromethyl)[biphenyl]-4-yl]methoxy}phenyl)ethyl]amino}-5,6,7,8-tetrahydroquinoline-2-carboxylic acid]
effects on HR ([1]; 100 μg/kg nominal dose inhaled): No effects on HR | PAP, absolute values for each animal ([1]; 100 μg/kg nominal dose inhaled 1 h before hypoxia, time 4 min): 10 and 13 and 8 | PAP, absolute values for each animal ([1]; 100 μg/kg nominal dose inhaled 1 h before hypoxia, time 6 min): 12 and 13 and 8 | PAP, absolute values for each animal ([1]; 100 μg/kg nominal dose inhaled 1 h before hypoxia, time 8 min): 10 and 12 and 9 | PAP, absolute values for each animal ([1]; 100 μg/kg nominal dose inhaled 16 h before hypoxia, time 22 min): 23 (2×) and 12 | PAP, absolute values for each animal ([1]; 100 μg/kg nominal dose inhaled 16 h before hypoxia, time 24 min): 21 and 27 and 14 | PAP, absolute values for each animal ([1]; 100 μg/kg nominal dose inhaled 16 h before hypoxia, time 26 min): 23 and 24 and 12 | PAP, absolute values for each animal ([1]; 100 μg/kg nominal dose inhaled 16 h before hypoxia, time 28 min): 21 and 25 and 15 | PAP, absolute values for each animal ([1]; 100 μg/kg nominal dose inhaled 16 h before hypoxia, time 30 min): 21 and 23 and 14 | PAP, absolute values for each animal ([1]; 100 μg/kg nominal dose inhaled 16 h before hypoxia, time 32 min): 18 and 26 and 16 | PAP, absolute values for each animal ([1]; 100 μg/kg nominal dose inhaled 16 h before hypoxia, time 34 min): 18 and 28 and 15 | PAP, absolute values for each animal ([1]; 100 μg/kg nominal dose inhaled 16 h before hypoxia, time 36 min): 17 and 25 and 18 | PAP, absolute values for each animal ([1]; 100 μg/kg nominal dose inhaled 16 h before hypoxia, time 38 min): 18 and 27 and 17 | PAP, absolute values for each animal ([1]; 100 μg/kg nominal dose inhaled 16 h before hypoxia, time 40 min): 17 (2×) and 28 | PAP, absolute values for each animal ([1]; 100 μg/kg nominal dose inhaled 16 h before hypoxia, time 42 min): 9 and 19 and 13 | PAP, absolute values for each animal ([1]; 100 μg/kg nominal dose inhaled 16 h before hypoxia, time 44 min): 7 and 18 and 9 | PAP, absolute values for each animal ([1]; 100 μg/kg nominal dose inhaled 16 h before hypoxia, time 46 min): 7 and 18 and 6 | PAP, absolute values for each animal ([1]; 100 μg/kg nominal dose inhaled 16 h before hypoxia, time 48 min): 6 and 16 and 9 | PAP, absolute values for each animal ([1]; 100 μg/kg nominal dose inhaled 16 h before hypoxia, time 50 min): 7 and 15 and 8 | PAP, absolute values for each animal ([1]; 100 μg/kg nominal dose inhaled 24 h before hypoxia, time 0 min): 10 and 15 (2×) | PAP, absolute values for each animal ([1]; 100 μg/kg nominal dose inhaled 24 h before hypoxia, time 2 min): 9 and 14 and 12 | PAP, absolute values for each animal ([1]; 100 μg/kg nominal dose inhaled 24 h before hypoxia, time 4 min): 8 and 14 and 10 | PAP, absolute values for each animal ([1]; 100 μg/kg nominal dose inhaled 24 h before hypoxia, time 6 min): 8 and 16 and 11 | PAP, absolute values for each animal ([1]; 100 μg/kg nominal dose inhaled 24 h before hypoxia, time 8 min): 8 and 14 and 9 | PAP, absolute values for each animal ([1]; 100 μg/kg nominal dose inhaled 24 h before hypoxia, time 10 min): 9 and 11 and 10 | PAP, absolute values for each animal ([1]; 100 μg/kg nominal dose inhaled 24 h before hypoxia, time 12 min): 20 (2×) and 15 | PAP, absolute values for each animal ([1]; 100 μg/kg nominal dose inhaled 24 h before hypoxia, time 14 min): 23 and 22 and 19 | PAP, absolute values for each animal ([1]; 100 μg/kg nominal dose inhaled 24 h before hypoxia, time 16 min): 27 and 24 and 22 | PAP, absolute values for each animal ([1]; 100 μg/kg nominal dose inhaled 24 h before hypoxia, time 18 min): 27 and 26 and 20 | PAP, absolute values for each animal ([1]; 100 μg/kg nominal dose inhaled 24 h before hypoxia, time 20 min): 29 (2×) and 23 | PAP, absolute values for each animal ([1]; 100 μg/kg nominal dose inhaled 24 h before hypoxia, time 22 min): 27 and 30 and 22 | PAP, absolute values for each animal ([1]; 100 μg/kg nominal dose inhaled 24 h before hypoxia, time 24 min): 26 and 28 and 22 | PAP, absolute values for each animal ([1]; 100 μg/kg nominal dose inhaled 24 h before hypoxia, time 26 min): 24 and 29 and 17 | PAP, absolute values for each animal ([1]; 100 μg/kg nominal dose inhaled 24 h before hypoxia, time 28 min): 26 and 29 and 20 | PAP, absolute values for each animal ([1]; 100 μg/kg nominal dose inhaled 24 h before hypoxia, time 30 min): 24 | efficacy (PAP decrease), head to head ([1]; 100 μg/kg nominal dose inhaled, up to 6 hrs after inhalation): comparable efficacy | mPAP decrease during Hypoxia, each animal [1, 7]: −12.44 mmHg and −11.44 mmHg and −10.13 mmHg | mPAP decrease during Hypoxia, mean +/− SEM [1, 7]: −11.33 ± 0.67 mmHg | mPAP decrease during Hypoxia, each animal [1, 8]: −16.13 mmHg and −5.44 mmHg and −8.75 mmHg | mPAP decrease during Hypoxia, mean +/− SEM [1, 8]: −10.10 ± 3.16 mmHg | mPAP decrease during Hypoxia, each animal [1, 9]: −3.44 mmHg and −4.81 mmHg and −1.69 mmHg | mPAP decrease during Hypoxia, mean +/− SEM [1, 9]: −3.31 ± 0.90 mmHg | mPAP decrease during Hypoxia, each animal [1, 10]: −2.25 mmHg and −4.25 mmHg and −3.00 mmHg | mPAP decrease during Hypoxia, mean +/− SEM [1, 10]: −3.17 ± 0.58 mmHg | mPAP decrease during Hypoxia, each animal [1, 11]: −0.13 mmHg and −1.94 mmHg and −0.50 mmHg | mPAP decrease during Hypoxia, mean +/− SEM [1, 11]: −0.85 ± 0.55 mmHg | PAP decrease, head to head ([1]; 100 μg/kg nominal dose, 12 and 16 hrs after inhalation): more effective PAP decrease for comparative example 11 compared to comparative example 4 | fraction unbound [2]: 0.000485 | fraction unbound [3]: < 0.01 | fraction unbound [4]: 0.00224 | fraction unbound [5]: 0.00108 | MED (dry powder) [6]: < 7.5 µg/kg
